Patent US10851102B2, “Imidazole and triazole containing bicyclic compounds as JAK inhibitors” (THERAVANCE BIOPHARMA R&D IP, LLC, priority 2019, dated 2020)

How the values were obtained:
JAK1 = JAK1 (Homo sapiens (Human), UniProt P23458); experiment: Biochemical JAK and Tyk2 kinase assays (LanthaScreen): JAK1; settings: 1 h pre-incubation, ATP at Km; pIC50 converted to pKi by Cheng-Prusoff
Description: (§1) Assay 1: Biochemical JAK and Tyk2 Kinase Assays
(§2) A panel of four LanthaScreen JAK biochemical assays (JAK1, 2, 3 and Tyk2) were carried in a common kinase reaction buffer (50 mM HEPES, pH 7.5, 0.01% Brij-35, 10 mM MgCl2, and 1 mM EGTA). Recombinant GST-tagged JAK enzymes and a GFP-tagged STAT1 peptide substrate were obtained from Life Technologies.
(§3) Serially or discretely diluted compounds were pre-incubated with each of the four JAK enzymes and the substrate in white 384-well microplates (Corning) at ambient temperature for 1 h. ATP was subsequently added to initiate the kinase reactions in 10 μL total volume, with 1% DMSO. […] Kinase reactions were allowed to proceed for 1 hour at ambient temperature before a 10 μL preparation of EDTA (10 mM final concentration) and Tb-anti-pSTAT1 (pTyr701) antibody (Life Technologies, 2 nM final concentration) in TR-FRET dilution buffer (Life Technologies) was added. The plates were allowed to incubate at ambient temperature for 1 h before being read on the EnVision reader (Perkin Elmer). Emission ratio signals (520 nm/495 nm) were recorded and utilized to calculate the percent inhibition values based on DMSO and background controls.
(§4) For dose-response analysis, percent inhibition data were plotted vs. compound concentrations, and IC50 values were determined from a 4-parameter robust fit model with the Prism software (GraphPad Software). Results were expressed as pIC50 (negative logarithm of IC50) and subsequently converted to pKi (negative logarithm of dissociation constant, Ki) using the Cheng-Prusoff equation.

JAK2 = JAK2 (Homo sapiens (Human), UniProt O60674); experiment: Biochemical JAK and Tyk2 kinase assays (LanthaScreen): JAK2; settings: 1 h pre-incubation, ATP at Km, pIC50 converted to pKi by Cheng-Prusoff
Sequence of JAK2 (O60674 whole entry): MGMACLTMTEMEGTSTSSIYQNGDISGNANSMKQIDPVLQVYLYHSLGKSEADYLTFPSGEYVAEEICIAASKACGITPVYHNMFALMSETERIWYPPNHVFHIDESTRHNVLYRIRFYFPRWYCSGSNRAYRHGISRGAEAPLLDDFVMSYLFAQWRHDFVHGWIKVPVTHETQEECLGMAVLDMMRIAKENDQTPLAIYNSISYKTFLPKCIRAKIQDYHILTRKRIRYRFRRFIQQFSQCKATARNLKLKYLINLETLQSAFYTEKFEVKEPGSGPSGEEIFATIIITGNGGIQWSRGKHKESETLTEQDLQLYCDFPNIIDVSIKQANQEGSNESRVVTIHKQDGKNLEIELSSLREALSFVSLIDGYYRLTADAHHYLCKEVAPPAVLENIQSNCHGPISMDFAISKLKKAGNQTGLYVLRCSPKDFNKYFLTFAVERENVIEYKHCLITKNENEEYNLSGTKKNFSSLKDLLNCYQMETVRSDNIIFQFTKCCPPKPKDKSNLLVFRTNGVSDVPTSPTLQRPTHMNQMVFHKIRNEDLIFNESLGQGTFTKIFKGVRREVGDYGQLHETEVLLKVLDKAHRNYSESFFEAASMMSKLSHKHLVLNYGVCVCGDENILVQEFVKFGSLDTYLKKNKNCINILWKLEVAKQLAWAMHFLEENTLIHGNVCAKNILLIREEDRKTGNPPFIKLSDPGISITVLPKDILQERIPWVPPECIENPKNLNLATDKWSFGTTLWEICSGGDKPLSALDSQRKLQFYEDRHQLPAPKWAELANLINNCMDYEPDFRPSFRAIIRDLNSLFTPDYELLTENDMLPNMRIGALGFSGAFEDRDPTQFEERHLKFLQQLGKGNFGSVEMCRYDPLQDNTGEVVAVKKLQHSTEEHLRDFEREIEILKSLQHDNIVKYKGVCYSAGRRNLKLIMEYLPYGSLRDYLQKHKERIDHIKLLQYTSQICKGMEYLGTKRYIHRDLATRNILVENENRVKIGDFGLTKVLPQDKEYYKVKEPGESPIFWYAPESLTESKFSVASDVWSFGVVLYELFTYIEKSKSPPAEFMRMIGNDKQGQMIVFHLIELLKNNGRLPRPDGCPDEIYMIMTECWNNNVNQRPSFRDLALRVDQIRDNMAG
Description: as §1, §2, §3, §4

JAK3 = JAK3 (Homo sapiens (Human), UniProt P52333); experiment: Biochemical JAK and Tyk2 kinase assays (LanthaScreen): JAK3; settings: for Ki / JAK 3 (pKi): 1 h pre-incubation, ATP at Km, pIC50 converted to pKi by Cheng-Prusoff; for Ki: read-out: JAK 3 (pKi) (converted); for JAK3 (pKi)-JAK1 (pKi): difference of pKi values, selectivity JAK3 over JAK1
Sequence of JAK3 (P52333 whole entry): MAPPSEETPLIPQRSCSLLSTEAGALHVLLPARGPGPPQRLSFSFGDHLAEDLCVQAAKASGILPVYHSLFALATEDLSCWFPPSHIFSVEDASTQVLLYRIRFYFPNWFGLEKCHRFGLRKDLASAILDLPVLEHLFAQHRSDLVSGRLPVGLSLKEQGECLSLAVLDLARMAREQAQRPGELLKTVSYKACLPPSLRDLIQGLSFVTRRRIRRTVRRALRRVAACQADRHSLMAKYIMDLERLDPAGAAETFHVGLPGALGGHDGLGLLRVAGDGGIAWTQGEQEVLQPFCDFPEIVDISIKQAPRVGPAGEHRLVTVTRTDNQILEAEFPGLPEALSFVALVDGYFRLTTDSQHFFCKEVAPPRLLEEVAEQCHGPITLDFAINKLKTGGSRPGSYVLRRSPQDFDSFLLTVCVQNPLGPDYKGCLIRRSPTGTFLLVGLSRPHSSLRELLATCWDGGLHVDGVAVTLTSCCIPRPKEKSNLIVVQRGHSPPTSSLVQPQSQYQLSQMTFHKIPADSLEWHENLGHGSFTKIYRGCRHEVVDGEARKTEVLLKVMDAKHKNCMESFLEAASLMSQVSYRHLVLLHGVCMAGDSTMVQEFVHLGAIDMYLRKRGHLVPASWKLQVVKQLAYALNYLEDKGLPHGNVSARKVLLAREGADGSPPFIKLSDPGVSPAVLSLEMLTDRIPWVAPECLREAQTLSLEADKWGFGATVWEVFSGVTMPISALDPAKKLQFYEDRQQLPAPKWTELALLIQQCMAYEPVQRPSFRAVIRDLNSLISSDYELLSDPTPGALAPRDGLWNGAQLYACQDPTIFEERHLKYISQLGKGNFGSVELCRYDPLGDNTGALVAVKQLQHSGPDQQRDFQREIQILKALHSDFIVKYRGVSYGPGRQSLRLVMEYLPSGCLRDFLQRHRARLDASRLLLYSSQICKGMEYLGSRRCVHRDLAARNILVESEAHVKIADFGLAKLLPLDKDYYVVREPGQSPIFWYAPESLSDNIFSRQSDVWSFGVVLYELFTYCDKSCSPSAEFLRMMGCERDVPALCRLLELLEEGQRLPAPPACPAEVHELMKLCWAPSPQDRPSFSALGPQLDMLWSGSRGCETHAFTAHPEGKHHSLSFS
Description: as §1, §2, §3, §4

Tyk2 = Tyk2 (Homo sapiens (Human), UniProt P29597); experiment: Biochemical JAK and Tyk2 kinase assays (LanthaScreen): Tyk2; settings: 1 h pre-incubation, ATP at Km; pIC50 converted to pKi by Cheng-Prusoff
Sequence of Tyk2 (P29597 whole entry): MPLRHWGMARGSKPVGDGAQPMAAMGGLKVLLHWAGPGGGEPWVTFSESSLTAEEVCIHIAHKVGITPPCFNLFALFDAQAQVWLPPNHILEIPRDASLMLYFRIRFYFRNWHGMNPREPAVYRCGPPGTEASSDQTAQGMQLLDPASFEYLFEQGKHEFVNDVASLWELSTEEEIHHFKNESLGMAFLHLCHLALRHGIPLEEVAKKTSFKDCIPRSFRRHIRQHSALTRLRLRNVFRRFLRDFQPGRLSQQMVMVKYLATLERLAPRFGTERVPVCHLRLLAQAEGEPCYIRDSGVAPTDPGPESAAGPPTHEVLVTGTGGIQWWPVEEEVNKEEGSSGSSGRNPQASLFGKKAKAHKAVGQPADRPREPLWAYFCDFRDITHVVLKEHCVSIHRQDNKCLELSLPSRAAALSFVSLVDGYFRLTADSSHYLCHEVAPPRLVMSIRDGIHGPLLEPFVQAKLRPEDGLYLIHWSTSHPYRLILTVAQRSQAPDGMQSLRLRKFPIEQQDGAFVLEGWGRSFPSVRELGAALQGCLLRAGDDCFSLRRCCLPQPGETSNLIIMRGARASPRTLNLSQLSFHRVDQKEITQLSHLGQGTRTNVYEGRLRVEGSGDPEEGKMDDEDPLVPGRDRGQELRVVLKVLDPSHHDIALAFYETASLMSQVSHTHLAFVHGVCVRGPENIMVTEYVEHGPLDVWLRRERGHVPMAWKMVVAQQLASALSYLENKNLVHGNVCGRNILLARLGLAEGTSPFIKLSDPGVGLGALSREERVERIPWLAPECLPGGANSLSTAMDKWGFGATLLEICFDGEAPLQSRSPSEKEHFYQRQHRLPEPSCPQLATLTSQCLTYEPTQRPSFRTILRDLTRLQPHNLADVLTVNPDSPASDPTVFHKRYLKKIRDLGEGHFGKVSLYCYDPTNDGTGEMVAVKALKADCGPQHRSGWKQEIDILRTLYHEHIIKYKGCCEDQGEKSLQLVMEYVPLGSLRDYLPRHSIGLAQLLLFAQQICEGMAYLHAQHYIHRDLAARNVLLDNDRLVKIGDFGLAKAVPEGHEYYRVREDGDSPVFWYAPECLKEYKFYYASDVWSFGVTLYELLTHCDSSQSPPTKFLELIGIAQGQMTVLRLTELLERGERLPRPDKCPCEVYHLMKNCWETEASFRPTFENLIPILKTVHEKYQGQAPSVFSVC
Description: as §1, §2, §3, §4

[1] = tested on: IL-2 stimulated pSTAT5 in Tall-1 T cells (JAK3); experiment: Cellular JAK3 potency assay: inhibition of IL-2 stimulated pSTAT5 in Tall-1 T cells; format: cell-based; settings: IL-2 300 ng/ml, pSTAT5 AlphaLisa, Tall-1 human T cell line; read-out: Tall-1 (pIC50) (converted)
Description: Assay 2: Cellular JAK3 Potency Assay: Inhibition of IL-2 Stimulated pSTAT5 in Tall-1 T Cells
The potency of test compounds for inhibition of interleukin-2 (IL-2) stimulated STATS phosphorylation was measured in the Tall-1 human T cell line (DSMZ) using AlphaLisa. Because IL-2 signals through JAK3, this assay provides a measure of JAK3 cellular potency.
(§5) Phosphorylated STATS was measured via the AlphaLISA SureFire Ultra pSTAT5 (Tyr694/699) kit (PerkinElmer).
Human T cells from the Tall-1 cell line were cultured in a 37° C., 5% CO2 humidified incubator in RPMI (Life Technologies) supplemented with 15% Heat Inactivated Fetal Bovine Serum (FBS, Life Technologies), 2 mM Glutamax (Life Technologies), 25 mM HEPES (Life Technologies) and 1× Pen/Strep (Life Technologies). Compounds were serially diluted in DMSO and dispensed acoustically to empty wells. Assay media (phenol red-free DMEM (Life Technologies) supplemented with 10% FBS (ATCC)) was dispensed (4 μL/well) and plates shaken at 900 rpm for 10 mins. Cells were seeded at 45,000 cells/well in assay media (4 μL/well), and incubated at 37° C., 5% CO2 for 1 hour, followed by the addition of IL-2 (R&D Systems; final concentration 300 ng/ml) in pre-warmed assay media ([…]) for 30 minutes. After cytokine stimulation, cells were lysed with 6 ul of 3× AlphaLisa Lysis Buffer (PerkinElmer) containing 1× PhosStop and Complete tablets (Roche). The lysate was shaken at 900 rpm for 10 minutes at room temperature (RT). Phosphorylated STATS was measured via the pSTAT5 AlphaLisa kit (PerkinElmer). Freshly prepared acceptor bead mixture was dispensed onto lysate (5 μL) under green filtered <100 lux light. Plates were shaken at 900 rpm for 2 mins, briefly spun down, and incubated for 2 hrs at RT in the dark. Donor beads were dispensed (5 μL) under green filtered <100 lux light. Plates were shaken at 900 rpm for 2 minutes, briefly spun down, and incubated overnight at RT in the dark. Luminescence was measured with excitation at 689 nm and emission at 570 nm using an EnVision plate reader (PerkinElmer) under green filtered <100 lux light.
(§6) To determine the inhibitory potency of test compounds in response to IL-2, the average emission intensity of beads bound to pSTAT5 was measured in a human T cell line. IC50 values were determined from analysis of the inhibition curves of signal intensity versus compound concentration. Data are expressed as pIC50 (negative decadic logarithm IC50) values (mean±standard deviation).

[2] = tested on: IL-2 stimulated pSTAT5 in CD4+ T cells isolated from murine splenocytes (JAK3); experiment: Inhibition of IL-2 stimulated pSTAT5 in CD4+ T cells isolated from murine splenocytes; format: cell-based; settings: Mus musculus, IL-2 7 ng/ml, read-out: pIC50, inhibition of IL-2 stimulated pSTAT5 (converted)
Description: Assay 3: Inhibition of IL-2 Stimulated pSTAT5 in CD4+ T Cells Isolated from Murine Splenocytes
The potency of test compounds for inhibition of interleukin-2 (IL-2) stimulated STATS phosphorylation was measured in the CD4+ T cells isolated from murine splenocytes using AlphaLisa. Because IL-2 signals through JAK3, this assay provides a measure of JAK3 cellular potency in mouse.
as §5
CD4+ T cells were isolated from murine splenocytes via negative selection on a magnetic column (Miltnyi Biotec) and re-suspended in assay media (phenol red-free DMEM (Life Technologies) supplemented with 10% FBS (ATCC)). Cells were seeded at 50,000 cells/well in assay media (2 μL/well). Compounds were serially diluted in DMSO and diluted to 2× final concentration in assay media. Compound was added (4 μl/well) and the cells incubated at 37° C., 5% CO2 for 1 hour, followed by the addition of IL-2 (R&D Systems; final concentration 7 ng/ml) in pre-warmed assay media (2 μL) for 30 minutes. After cytokine stimulation, cells were lysed with 2 μl of 5× AlphaLisa Lysis Buffer (PerkinElmer). The lysate was shaken at 900 rpm for 10 minutes at room temperature (RT). Phosphorylated STATS was measured via the pSTAT5 AlphaLisa kit (PerkinElmer). Freshly prepared acceptor bead mixture was dispensed onto lysate (5 ul) under green filtered <100 lux light. Plates were shaken at 900 rpm for 2 mins, briefly spun down, and incubated for 2 hrs at RT in the dark. Donor beads were dispensed (5 μl) under green filtered <100 lux light. Plates were shaken at 900 rpm for 2 mins, briefly spun down, and incubated overnight at RT in the dark. Luminescence was measured with excitation at 689 nm and emission at 570 nm using an EnVision plate reader (PerkinElmer) under green filtered <100 lux light.
as §6, with “pSTATS” for “pSTAT5”, “primary CD4+” for “a human”, “cells isolated from murine splenocytes.” for “cell line.”, “vs” for “versus”

Caco-2 cell monolayers = experiment: Caco-2 permeation assay; format: in vitro ADME, human; settings: 5 μM, A to B, + Verapamil 25 μM, 120 minutes
Excerpt: Assay 5: Caco-2 Permeation Assay

Sequence of JAK1 (P23458 whole entry): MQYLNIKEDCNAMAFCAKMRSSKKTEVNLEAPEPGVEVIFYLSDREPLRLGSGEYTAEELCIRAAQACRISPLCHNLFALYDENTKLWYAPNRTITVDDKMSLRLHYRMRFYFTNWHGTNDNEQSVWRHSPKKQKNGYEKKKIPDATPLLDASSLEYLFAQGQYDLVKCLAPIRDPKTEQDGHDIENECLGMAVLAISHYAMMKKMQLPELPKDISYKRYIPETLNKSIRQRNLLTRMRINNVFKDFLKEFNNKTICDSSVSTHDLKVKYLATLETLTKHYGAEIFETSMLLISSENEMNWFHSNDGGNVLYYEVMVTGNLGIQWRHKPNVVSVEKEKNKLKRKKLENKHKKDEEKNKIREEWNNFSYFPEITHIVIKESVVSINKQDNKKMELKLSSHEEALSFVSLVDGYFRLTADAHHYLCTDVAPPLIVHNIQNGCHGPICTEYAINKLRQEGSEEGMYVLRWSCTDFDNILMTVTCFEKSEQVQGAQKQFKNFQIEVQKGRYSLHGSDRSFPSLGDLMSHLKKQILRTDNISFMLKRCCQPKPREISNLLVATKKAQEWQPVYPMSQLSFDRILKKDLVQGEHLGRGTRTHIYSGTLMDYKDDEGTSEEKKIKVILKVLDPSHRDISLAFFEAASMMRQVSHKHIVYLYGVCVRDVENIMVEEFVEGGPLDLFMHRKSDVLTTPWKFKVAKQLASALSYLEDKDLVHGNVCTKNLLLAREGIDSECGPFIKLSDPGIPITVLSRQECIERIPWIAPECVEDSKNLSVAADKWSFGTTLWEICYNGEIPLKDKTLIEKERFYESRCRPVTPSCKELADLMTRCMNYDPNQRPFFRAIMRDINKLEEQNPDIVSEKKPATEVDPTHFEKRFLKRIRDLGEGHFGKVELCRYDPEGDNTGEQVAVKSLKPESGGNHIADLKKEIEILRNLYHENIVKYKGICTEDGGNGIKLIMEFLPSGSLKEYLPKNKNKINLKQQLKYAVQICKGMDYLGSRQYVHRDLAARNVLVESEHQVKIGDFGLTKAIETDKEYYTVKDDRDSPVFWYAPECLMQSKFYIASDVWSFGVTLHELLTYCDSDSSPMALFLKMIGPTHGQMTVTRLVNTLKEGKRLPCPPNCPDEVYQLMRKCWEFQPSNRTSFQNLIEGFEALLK

SMILES: C=CC(=O)N1CC(COc2cc(-c3ccc(O)c(F)c3)cn3cncc23)C1 [Example 20]
- JAK 1 (pKi) (JAK1): E (E represents a pKi value of 7 or below (Ki of 100 nM or above))
- JAK 2 (pKi) (JAK2): E (E represents a pKi value of 7 or below (Ki of 100 nM or above))
- Ki (JAK3): 0.1 to 1 nM
- JAK3 (pKi)-JAK1 (pKi) (JAK3): A (A represents a value of 3 or above)
- Tyk 2 (pKi) (Tyk2): E (E represents a pKi value of 7 or below (Ki of 100 nM or above))
- IC50 [1]: 31.6 to 200 nM
- IC50 [2]: < 1000 nM
- Caco Kp 10^−6 cm/sec (Caco-2 cell monolayers): A (A represents a value below 5×10^−6 cm/sec)

SMILES: C=CC(=O)N1CC(COc2cc(-c3ccc(O)cc3)cn3cncc23)C1 [Example 11, 1-(3-(((6-(4-hydroxyphenyl)imidazo[1,5-a]pyridin-8-yl)oxy)methyl)azetidin-1-yl)prop-2-en-1-one]
- JAK 1 (pKi) (JAK1): E (E represents a pKi value of 7 or below (Ki of 100 nM or above))
- JAK 2 (pKi) (JAK2): E (E represents a pKi value of 7 or below (Ki of 100 nM or above))
- Ki (JAK3): 0.1 to 1 nM
- JAK3 (pKi)-JAK1 (pKi) (JAK3): A (A represents a value of 3 or above)
- Tyk 2 (pKi) (Tyk2): E (E represents a pKi value of 7 or below (Ki of 100 nM or above))
- IC50 [1]: 31.6 to 200 nM
- IC50 [2]: < 1000 nM
- Caco Kp 10^−6 cm/sec (Caco-2 cell monolayers): A (A represents a value below 5×10^−6 cm/sec)

SMILES: C=CC(=O)N1CC(COc2cc(-c3c(F)cc(O)cc3F)cn3cncc23)C1 [Example 7, 1-(3-(((6-(2,6-difluoro-4-hydroxyphenyl)imidazo[1,5-a]pyridin-8-yl)oxy)methyl)azetidin-1-yl)prop-2-en-1-one]
- JAK 1 (pKi) (JAK1): E (E represents a pKi value of 7 or below (Ki of 100 nM or above))
- JAK 2 (pKi) (JAK2): E (E represents a pKi value of 7 or below (Ki of 100 nM or above))
- Ki (JAK3): 0.1 to 1 nM
- JAK3 (pKi)-JAK1 (pKi) (JAK3): A (A represents a value of 3 or above)
- Tyk 2 (pKi) (Tyk2): E (E represents a pKi value of 7 or below (Ki of 100 nM or above))
- IC50 [1]: 31.6 to 200 nM
- IC50 [2]: < 1000 nM
- Caco Kp 10^−6 cm/sec (Caco-2 cell monolayers): B (B represents a value between 5×10^−6 and 10×10^−6 cm/sec)

SMILES: C=CC(=O)N1CC(COc2cc(-c3ccc(O)c(F)c3F)cn3cncc23)C1 [Example 8, 1-(3-(((6-(2,3-difluoro-4-hydroxyphenyl)imidazo[1,5-a]pyridin-8-yl)oxy)methyl)azetidin-1-yl)prop-2-en-1-one]
- JAK 1 (pKi) (JAK1): E (E represents a pKi value of 7 or below (Ki of 100 nM or above))
- JAK 2 (pKi) (JAK2): E (E represents a pKi value of 7 or below (Ki of 100 nM or above))
- JAK 3 (pKi) (JAK3): A (A represents a pKi value≥10 (Ki≤0.1 nM))
- JAK3 (pKi)-JAK1 (pKi) (JAK3): A (A represents a value of 3 or above)
- Tyk 2 (pKi) (Tyk2): E (E represents a pKi value of 7 or below (Ki of 100 nM or above))
- IC50 [1]: 31.6 to 200 nM
- IC50 [2]: < 1000 nM
- Caco Kp 10^−6 cm/sec (Caco-2 cell monolayers): B (B represents a value between 5×10^−6 and 10×10^−6 cm/sec)

SMILES: C=CC(=O)N1CC(COc2cc(-c3cc(F)c(O)c(Cl)c3)cn3cncc23)C1 [Example 31]
- JAK 1 (pKi) (JAK1): E (E represents a pKi value of 7 or below (Ki of 100 nM or above))
- JAK 2 (pKi) (JAK2): E (E represents a pKi value of 7 or below (Ki of 100 nM or above))
- JAK 3 (pKi) (JAK3): A (A represents a pKi value≥10 (Ki≤0.1 nM))
- JAK3 (pKi)-JAK1 (pKi) (JAK3): A (A represents a value of 3 or above)
- Tyk 2 (pKi) (Tyk2): E (E represents a pKi value of 7 or below (Ki of 100 nM or above))
- IC50 [1]: 31.6 to 200 nM
- IC50 [2]: < 1000 nM
- Caco Kp 10^−6 cm/sec (Caco-2 cell monolayers): A (A represents a value below 5×10^−6 cm/sec)

SMILES: C=CC(=O)N1CC(COc2nc(-c3ccc(O)cc3)cn3cncc23)C1 [Example 6, 1-(3-(((6-(4-hydroxyphenyl)imidazo[1,5-a]pyrazin-8-yl)oxy)methyl)azetidin-1-yl)prop-2-en-1-one]
- JAK 1 (pKi) (JAK1): E (E represents a pKi value of 7 or below (Ki of 100 nM or above))
- JAK 2 (pKi) (JAK2): E (E represents a pKi value of 7 or below (Ki of 100 nM or above))
- Ki (JAK3): 0.1 to 1 nM
- JAK3 (pKi)-JAK1 (pKi) (JAK3): A (A represents a value of 3 or above)
- Tyk 2 (pKi) (Tyk2): E (E represents a pKi value of 7 or below (Ki of 100 nM or above))
- IC50 [1]: 31.6 to 200 nM
- Caco Kp 10^−6 cm/sec (Caco-2 cell monolayers): B (B represents a value between 5×10^−6 and 10×10^−6 cm/sec)

SMILES: C=CC(=O)N1CCC(Oc2cc(-c3ccc(O)cc3)cn3cncc23)C(F)(F)C1 (stereo not drawn) [Example 14, 1-(3,3-difluoro-4-((6-(4-hydroxyphenyl)imidazo[1,5-a]pyridin-8-yl)oxy)piperidin-1-yl)prop-2-en-1-one]
- JAK 1 (pKi) (JAK1): E (E represents a pKi value of 7 or below (Ki of 100 nM or above))
- Ki (JAK2; read-out: JAK 2 (pKi) (converted)): 10 to 100 nM
- JAK 3 (pKi) (JAK3): A (A represents a pKi value≥10 (Ki≤0.1 nM))
- JAK3 (pKi)-JAK1 (pKi) (JAK3): A (A represents a value of 3 or above)
- Tyk 2 (pKi) (Tyk2): E (E represents a pKi value of 7 or below (Ki of 100 nM or above))
- IC50 [1]: ≤ 31.6 nM
- Caco Kp 10^−6 cm/sec (Caco-2 cell monolayers): B (B represents a value between 5×10^−6 and 10×10^−6 cm/sec)
